Measurements taken from US20080305186A1, “Method and Composition for the Treatment of Cardiac Hypertrophy” (BOARD OF REGENTS, THE UNIVERSITY OF TEXAS SYSTEM, priority 2007, published 2008).

Test system: cardiac gene expression
Assay: Microarray analysis of cardiac gene expression (GeneChip Mouse Genome 430 2.0)
Assay type: in vivo, mice
Procedure: Microarray Sample Preparation and Analysis. Animal hearts were rapidly removed, and the atria and right ventricles were cut and immediately plunged into TRIzol Reagent (Life Technologies). Total RNA was isolated following the manufacturer's instructions, purified by phenol-chloroform extraction and then ethanol precipitation, and 20 μg further processed for microarray analysis. Briefly, cDNA synthesis, in vitro transcription, and labeling and fragmentation to produce the oligonucleotide probes were performed as instructed by the GeneChip manufacturer (Affymetrix). The probes were first hybridized to a test array (Affymetrix) and then to the GeneChip Mouse Genome 430 2.0 Array, using the GeneChip Hybridization Oven 640. The chips were washed in a GeneChip Fluidics Station 450 (Affymetrix), and the results were visualized with a GeneChip G7 scanner (Affymetrix). RMA normalization, pairwise comparisons, Student's t test and Benjamini and Hochberg correction were subsequently performed using GeneSifter (VizX Labs, Seattle, Wash.) and Spotfire DecisionSite 8.3 (Spotfire, Inc., Somerville, Mass.).
Effects on Gene Expression Profile. […] One mouse heart was used for each array, and was performed in triplicate, generating a total of 12 arrays. GeneSifter was used to perform RMA normalization, pairwise comparisons of averaged signal intensity values, and Student's t-test with Benjamini and Hochberg correction, and Spotfire was used to perform pairwise comparisons. […] Additionally, genes that were altered between any two N or cardiac hypertrophy samples were removed, as these alterations most likely represented normal variations between mice.

[1] = CH vs drug-treated isoproterenol mice

SMILES: C[C@H]1c2cccc(O)c2C(=O)C2=C(O)[C@]3(O)C(=O)C(C(N)=O)=C(O)[C@@H](N(C)C)[C@@H]3[C@@H](O)[C@@H]21 [doxycycline]
- Number of Altered Genes, Average FC (1.5-fold) [1]: 2929
- Number of Altered Genes, Average FC (2-fold) [1]: 417
- Number of Altered Genes, Minus disease variability [1]: 578
- Number of Altered Genes, Minus natural variability [1]: 994
- Number of Altered Genes, Reproducible [1]: 497
- Number of Altered Genes, Student's t test [1]: 2274
- Number of Altered Genes, Correction (CH vs drug-treated isoproterenol mice, Benjamini and Hochberg): 2034
- Number of Altered Genes, Disease-specific (CH vs drug-treated isoproterenol mice, of 779 genes altered N vs CH, altered in the reverse direction): 327
- FC EST (GenBank AA419994, vs mice given only isoproterenol): −1.7
- FC Metallothionein 2 (Mt2) (GenBank AA796766, vs mice given only isoproterenol): −5.5
- FC Prostaglandin D synthetase (Ptgds) (GenBank AB006361, vs mice given only isoproterenol): −2.0
- FC Potassium channel, subfamily K, member 3 (Kcnk3) (GenBank AF065162, vs mice given only isoproterenol): 1.7
- FC Small inducible cytokine A9 (Scya9) (Ccl9) (Mip-1[…]) (GenBank AF128196, vs mice given only isoproterenol): −2.0
- FC Group V phospholipase A2 (Pla2g5) (GenBank AF162713, vs mice given only isoproterenol): 2.2
- FC GABA-A receptor-associated protein-like protein 1 (Gabarapl1) (GenBank AF180518, 1st listing, vs mice given only isoproterenol): −3.6
- FC GABA-A receptor-associated protein-like protein 1 (Gabarapl1) (GenBank AF180518, 2nd listing, vs mice given only isoproterenol): −3.1
- FC Toll-like receptor 4 (TLR4) (GenBank AF185285, heart, drug + isoproterenol vs isoproterenol-only mice, CH vs normal FC 2.2): −1.9 fold
- FC TSC22-related inducible leucine zipper 3c (Tilz3c) (Dsip1) (GenBank AF201289, heart, drug + isoproterenol vs isoproterenol-only mice, CH vs normal FC 2.7): −2.3 fold
- FC Homeodomain interacting protein kinase 2 (Hipk2) (GenBank AF208292, vs mice given only isoproterenol): 1.9
- FC Cytochrome b-5 reductase (Cyb5r3) (GenBank AF332060, vs mice given only isoproterenol): 1.7
- FC Transcription factor myocardin (Myocd) (GenBank AF384055, heart, drug + isoproterenol vs isoproterenol-only mice, CH vs normal FC −1.6): 4.0 fold
- FC F-box-WD40 repeat protein 6 (Fbxw6) (GenBank AF391192, vs mice given only isoproterenol): 2.9
- FC F-box only protein 32 (Fbxo32) (GenBank AF441120, vs mice given only isoproterenol): −3.3
- FC FK506 binding protein 5 (51 kDa) (Fkbp5) (GenBank AI098139, vs mice given only isoproterenol): −4.1
- FC Myosin binding protein C, fast-type (Mybpc2) (GenBank AI326984, vs mice given only isoproterenol): −3.2
- FC Heparan sulfate 2-O-sulfotransferase 1 (Hs2st1) (GenBank AI451467, vs mice given only isoproterenol): 2.2
- FC EST (GenBank AI467657, 1st listing, vs mice given only isoproterenol): −1.9
- FC EST (GenBank AI467657, 2nd listing, vs mice given only isoproterenol): −1.6
- FC EST (GenBank AI480750, vs mice given only isoproterenol): 1.7
- FC Interferon activated gene 205 (Ifi205) (GenBank AI481797, vs mice given only isoproterenol): −2.2
- FC Protein tyrosine phosphatase, receptor-type, F interacting protein, binding protein 2 (Ppfibp2) (GenBank AI503166, vs mice given only isoproterenol): −2.0
- FC Dipeptidase 1 (Dpep1) (GenBank AI647687, vs mice given only isoproterenol): −2.0
- FC Homocysteine-inducible, endoplasmic reticulum stress-inducible, ubiquitin-like domain member 1 (Herpud1) (GenBank AI835088, vs mice given only isoproterenol): −3.0
- FC Sulfotransferase family 1A, phenol-preferring, member 1 (Sult1a1) (GenBank AK002700, vs mice given only isoproterenol): −3.7
- FC GPI-ahored HDL-binding protein 1 (Gpihbp1) (GenBank AK003305, vs mice given only isoproterenol): −1.8
- FC Ets variant gene 5 (Etv5) (GenBank AK003461, vs mice given only isoproterenol): −2.0
- FC Peptidylprolyl isomerase (cyclophilin)-like 1 (Ppil1) (GenBank AK004331, vs mice given only isoproterenol): 1.8
- FC Extra cellular link domain-containing 1 (Xkd1) (GenBank AK004726, vs mice given only isoproterenol): −1.8
- FC SRY-box containing gene 17 (Sox17) (GenBank AK004781, vs mice given only isoproterenol): −1.6
- FC Phospholipase A2 group VII (platelet-activating factor acetylhydrolase, plasma) (Pla2g7) (GenBank AK005158, vs mice given only isoproterenol): −2.2
- FC Methyl-CpG binding domain protein 1 (Mbd1) (GenBank AK007371, 1st listing, vs mice given only isoproterenol): −2.5
- FC Methyl-CpG binding domain protein 1 (Mbd1) (GenBank AK007371, 2nd listing, vs mice given only isoproterenol): −2.0
- FC Homeobox only domain (Hod) (GenBank AK009007, vs mice given only isoproterenol): 1.5
- FC F-box and leucine-rich repeat protein 20 (Fbxl20) (GenBank AK012109, vs mice given only isoproterenol): −2.0
- FC Dual specificity phosphatase 4 (Dusp4) (GenBank AK012530, vs mice given only isoproterenol): −2.4
- FC Hydroxyacylglutathione hydrolase-like (Haghl) (GenBank AK012748, vs mice given only isoproterenol): 2.0
- FC Leucine-rich repeat-containing 52 (Lrrc52) (GenBank AK015134, vs mice given only isoproterenol): −2.6
- FC Sphingosine kinase 2 (Sphk2) (GenBank AK016616, vs mice given only isoproterenol): 1.5
- FC DNA-damage-inducible transcript 4 (Ddit4) (GenBank AK017926, vs mice given only isoproterenol): −5.6
- FC Kelch-like 24 (Khl24) (GenBank AK018314, vs mice given only isoproterenol): −2.1
- FC Transforming, acidic coiled-coil containing protein (Tacc1) (GenBank AK019530, heart, drug + isoproterenol vs isoproterenol-only mice, CH vs normal FC −2.1): 3.2 fold
- FC Protein arginine N-methyltransferase 1 (Prmt1) (GenBank AK020120, vs mice given only isoproterenol): 1.8
- FC Hydroxyacylglutathione hydrolase-like (Haghl) (GenBank AK021220, vs mice given only isoproterenol): 1.8
- FC Phosphodiesterase 7A (Pde7a) (GenBank AU015378, vs mice given only isoproterenol): −2.2
- FC p53 regulated PA26 nuclear protein (Sestrin 1) (Sesn1) (GenBank AV016566, vs mice given only isoproterenol): −2.3
- FC EST (GenBank AV032877, vs mice given only isoproterenol): −1.5
- FC Ectonucleoside triphosphate diphosphohydrolase 1 (Entpd1) (GenBank AV117919, vs mice given only isoproterenol): −2.1
- FC F-box and leucine-rich repeat protein 20 (Fbxl20) (GenBank AV120094, vs mice given only isoproterenol): −1.5
- FC Transthyretin (Ttr) (GenBank AV152953, heart, drug + isoproterenol vs isoproterenol-only mice, CH vs normal FC 4.4): −2.8 fold
- FC Solute carrier family 10 (sodium/bile acid cotransporter family), member 6 (Slc10a6) (GenBank AV244484, vs mice given only isoproterenol): −5.3
